The structures appear in SMILES notation. pIC50: −log10 of the molar value. In brackets after ≈: the same amount, converted by molar mass. Activity calls are given as the source filed them. The rule behind the calls is not given here.

The results in this text go back to ChEMBL document CHEMBL5365425, “Discovery of novel methionine adenosyltransferase 2A (MAT2A) allosteric inhibitors by structure-based virtual screening” (Bioorg Med Chem Lett, 2023).

Data set [1] deals with T1, S-adenosylmethionine synthase isoform type-2 (Homo sapiens, UniProt P31153). The experiment in a line: Inhibition of recombinant human MAT2A.
Data set [2] concerns the target T2, S-adenosylmethionine synthase isoform type-1 (Homo sapiens, UniProt Q00266). The experiment in a line: Inhibition of recombinant human MAT1A.
For data set [3], the target named is T2, S-adenosylmethionine synthase isoform type-1. The experiment in a line: Activation of human MAT1A. Conditions: filed as activator.
Data set [4] concerns HCT-116. Briefly: Antiproliferative activity against human HCT-116 cells assessed as inhibition of cell growth by proliferation assay. The format is functional, cell-based.
The test system of data set [5] is HCT-116. The experiment in a line: Antiproliferative activity against MTAP-/- isogenic variant of human HCT-116 cells assessed as inhibition of cell growth by proliferation assay. The format is functional, cell-based.
Data set [6] in a line: Lipophilicity, log D of compound at pH 7.4. In kind it is physicochemical. Conditions: buffer.
Data set [7] in a line: Solubility of the compound. The format is physicochemical.
Data set [8] concerns the target T2, S-adenosylmethionine synthase isoform type-1. Briefly: Inhibition of human MAT1A.
Data set [9] deals with T1, S-adenosylmethionine synthase isoform type-2. The experiment in a line: Inhibition of human MAT2A.
Target sequence in this assay (P31153 whole entry, canonical isoform): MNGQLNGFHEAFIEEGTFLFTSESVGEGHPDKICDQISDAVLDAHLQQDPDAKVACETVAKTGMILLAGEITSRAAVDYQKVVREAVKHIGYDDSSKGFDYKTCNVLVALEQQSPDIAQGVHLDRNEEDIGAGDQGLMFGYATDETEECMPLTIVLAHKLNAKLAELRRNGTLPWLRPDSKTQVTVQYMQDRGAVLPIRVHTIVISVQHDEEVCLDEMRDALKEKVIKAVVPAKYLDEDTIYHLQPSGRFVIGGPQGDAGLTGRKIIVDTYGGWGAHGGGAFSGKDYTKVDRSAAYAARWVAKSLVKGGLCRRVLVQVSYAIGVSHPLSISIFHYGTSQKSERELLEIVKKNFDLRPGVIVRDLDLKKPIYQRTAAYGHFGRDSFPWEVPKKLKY

T2 sequence (Q00266 whole entry, canonical isoform): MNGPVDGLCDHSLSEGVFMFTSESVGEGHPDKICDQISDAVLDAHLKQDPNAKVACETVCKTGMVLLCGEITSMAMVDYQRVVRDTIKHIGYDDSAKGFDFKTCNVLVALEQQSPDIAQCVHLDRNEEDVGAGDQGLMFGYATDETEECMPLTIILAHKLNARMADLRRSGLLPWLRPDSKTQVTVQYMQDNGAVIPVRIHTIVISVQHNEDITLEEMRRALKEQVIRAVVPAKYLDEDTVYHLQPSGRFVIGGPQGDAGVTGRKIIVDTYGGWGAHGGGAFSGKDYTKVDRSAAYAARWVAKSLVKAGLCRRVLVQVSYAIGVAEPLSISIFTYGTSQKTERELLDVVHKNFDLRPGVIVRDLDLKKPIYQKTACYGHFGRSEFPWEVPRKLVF

Regarding `COc1ccc(-c2c(Nc3ccccn3)[nH]c3c(C4=CCCCC4)c(-c4ccccc4)nn3c2=O)cc1`, the inhibition entry in data set [1] and in data set [2] was “Active” each time. Moreover, the outcome in [3] was Active.
By pIC50 is commonly meant −log10 of the IC50, conventionally taken in molar units. Usually logD stands for lipophilicity at a set pH, counting ionised and neutral species. A high value points to higher lipophilicity. One may read the solubility as the dissolved amount per volume that the medium holds. A lower solubility goes with a poorly soluble substance. Turning to `CCn1ncc2c(C(=O)Nc3ccc4nn(C)cc4c3)cc(C3CC3)nc21`, the pIC50 in data set [1] was 7.11; with HCT-116 [4], under 5.00; in the data set with HCT-116 [5], 5.77. This compound returned a logD in [6] of 2.8. The compound further yielded a solubility in [7] of 2 µM (≈ 0.721 µg/mL).
With `CCn1ncc2c(C(=O)Nc3ccc4c(c3)ncn4C)cc(C3CC3)nc21`, the pIC50 is 6.52 in data set [1], under 5.00 in the data set on HCT-116 [4] and 5.00 in the data set on HCT-116 [5]. For the same compound, the logD in [6] was 2.6. In data set [7], this compound displayed a solubility of 47 µM (≈ 16.9 µg/mL).
As to `CC(C)n1ncc2c(C(=O)Nc3ccc4ncccc4c3)cc(C3CC3)nc21`, the pIC50 in data set [1] was 5.43; in the data set with HCT-116 [4], under 5.00; in the data set with HCT-116 [5], under 5.00. This compound also yielded a logD in data set [6] of 3.7. Moreover, in data set [7], the solubility was found to be 4 µM (≈ 1.49 µg/mL).
As for `CCn1ncc2c(C(=O)Nc3ccc4ncccc4c3)cc(C3CC3)nc21`, the pIC50 in [1] is 6.56; in the data set with HCT-116 [4], under 5.00; in the data set with HCT-116 [5] it was 5.19. The compound also returned a logD in [6] of 3.2. The concentration in solution in [7] (solubility) was 13 µM (≈ 4.65 µg/mL).
On to `CC(C)n1ncc2c(C(=O)Nc3ccc4nn(C)cc4c3)cc(C3CC3)nc21`, for which the pIC50 is 6.39 in [1], under 5.00 with HCT-116 [4] and under 5.00 with HCT-116 [5]. The compound further gave a logD in data set [6] of 3.3. In [7], this compound had a solubility of 3 µM (≈ 1.12 µg/mL).
As to `COc1ccc(-c2c3c(cc(C)[n+]2[O-])oc2ccc(OC)cc23)cc1`, the pIC50 was 6.84 in [1], under 5.00 in the data set with HCT-116 [4] and 5.12 in the data set on HCT-116 [5]. Moreover, the logD in data set [6] came to 2.5. In data set [7], this compound showed a solubility of 42 µM (≈ 14.1 µg/mL).
With `CCn1ncc2c(C(=O)Nc3ccc(OC)cc3)cc(C3CC3)nc21`, the values for the pIC50 (in data set [1]; in the data set with HCT-116 [4]; in the data set with HCT-116 [5]) were 6.89, under 5.00 and 5.28, respectively. For the same compound, the log distribution coefficient (logD) in data set [6] worked out at 3.6. Also, in data set [7], the solubility turned out to be 3 µM (≈ 1.01 µg/mL).
With `COc1ccc2oc3cc(C)[n+]([O-])c(-c4ccc(Cl)cc4)c3c2c1`, the pIC50 was 6.91 in [1], 5.10 in the data set on HCT-116 [4] and 5.51 with HCT-116 [5]. This compound came in with a logD in data set [6] of 2.8. Besides, in [7], the solubility was 14 µM (≈ 4.76 µg/mL).
In [8], `O=c1nc(N2CC[C@@H](F)C2)c2ccc(Cl)cc2n1-c1ccccc1` gave a pIC50 of 6.09. Moreover, the inhibition result in [1] and in data set [2] was “Active” throughout.
Turning to `CC(C)n1ncc2c(C(=O)Nc3ccc4n[nH]cc4c3)cc(C3CC3)nc21`, the results for the pIC50 (in data set [1]; in the data set on HCT-116 [4]; in the data set on HCT-116 [5]) were 5.74, under 5.00 and under 5.00, respectively. The compound further came in with a logD in [6] of 3.3. Moreover, the solubility in data set [7] turned out to be 19 µM (≈ 6.85 µg/mL).
In the case of `COc1ccc2oc3cc(C)[n+]([O-])c(-c4ccccc4)c3c2c1`, in data set [1], the pIC50 was 5.88. Besides, the logD in data set [6] amounted to 2.3. This compound also showed a solubility in data set [7] of 15 µM (≈ 4.58 µg/mL).
On to `CC(C)n1ncc2c(C(=O)Nc3ccc4nccnc4c3)cc(C3CC3)nc21`, for which, in data set [1], the pIC50 is under 5.00. In addition, the logD in data set [6] came out at 3.5. This compound also yielded a solubility in [7] of 2 µM (≈ 0.745 µg/mL).
In the case of `CCn1ncc2c(C(=O)Nc3ccc4nn(C)c(C)c4c3)cc(C3CC3)nc21`, the figures for the pIC50 (in [1]; in the data set on HCT-116 [4]; with HCT-116 [5]) were 7.05, under 5.00 and 5.50, respectively. The logD in data set [6] turned out to be 2.9. This compound also displayed a solubility in data set [7] of 9 µM (≈ 3.37 µg/mL).
As for `CCCCn1ncc2c(C(=O)Nc3ccc4nn(C)cc4c3)cc(C3CC3)nc21`, in [1], the pIC50 is under 5.00. Moreover, the logD in data set [6] amounted to 3.2. The same compound gave a solubility in data set [7] of 4 µM (≈ 1.55 µg/mL).
On the same counts, the results for `CCn1ncc2c(C(=O)N(C)c3ccc4nn(C)cc4c3)cc(C3CC3)nc21` are under 5.00, 2.2 and 94 µM (≈ 35.2 µg/mL).
As to `CCn1ncc2c(C(=O)Nc3ccc4[nH]ncc4c3)cc(C3CC3)nc21`, the pIC50 in data set [1] was 6.33; in the data set with HCT-116 [4] it was under 5.00; with HCT-116 [5] it was under 5.00. Besides, in [6], the logD is 2.7. In addition, the solubility in data set [7] was determined as 23 µM (≈ 7.97 µg/mL).
Compound `CN(C)CCc1nnc2cc(-c3ccccc3)c3cc(Cl)ccc3n12` gave a pIC50 in data set [9] of 6.39. The inhibition result in [1] and in data set [2] was “Active” throughout. Besides, in data set [3], the result was Active.
Regarding `CCn1ncc2c(C(=O)Nc3ccc4ncsc4c3)cc(C3CC3)nc21`, the pIC50 in data set [1] is 6.76; in the data set on HCT-116 [4], under 5.00; with HCT-116 [5], 5.41. In [6], this compound returned a logD of 3.4. The compound further came in with a solubility in data set [7] of 1 µM (≈ 0.363 µg/mL).
The corresponding values for `CCn1cc2cc(NC(=O)c3cc(C4CC4)nc4c3cnn4CC)ccc2n1` are 7.17, under 5.00, 5.62, 3.1 and 32 µM (≈ 12 µg/mL).
`COc1ccc2oc3cc(C)[n+]([O-])c(-c4ccc(C)cc4)c3c2c1`: the pIC50 in data set [1] is 7.29; in the data set with HCT-116 [4] it was 5.03; in the data set with HCT-116 [5] it was 5.30. This compound gave a logD in data set [6] of 2.7. In [7], the concentration in solution (solubility) came to 11 µM (≈ 3.51 µg/mL).
With `Cn1cc2cc(-n3cc4cnc(NCC(F)(F)F)nc4c(-c4ccc(OC(F)F)cc4)c3=O)ccc2n1`, the pIC50 in [9] is 7.30; in data set [8], under 5.00. For the same compound, the inhibition entry in data set [1] and in data set [2] was “Active” in each case.
As to `CCn1ncc2c(C(=O)Nc3ccc4ncn(C)c4c3)cc(C3CC3)nc21`, the figures for the pIC50 (in [1]; in the data set with HCT-116 [4]; in the data set with HCT-116 [5]) were 6.69, under 5.00 and 5.14, respectively. In [6], this compound registered a log distribution coefficient (logD) of 2.6. Besides, the solubility in data set [7] was found to be 49 µM (≈ 17.7 µg/mL).
